How the values were obtained:
PKADJ = target: T1, PKADJ (Homo sapiens, UniProt P17612); experiment: modified sandwich ELISA, PKADJ holoenzyme; format: biochemical
T1 construct: gene fusion between the first exon of the gene encoding the Heat Shock Protein 40 (HSP40) family member DNAJB1 and the second exon; the other entry of the earlier key: DNAJB1 (P25685, DnaJ homolog subfamily B member 1)
Method: The reaction and readout components of this assay were than optimized including optimal reactant concentrations for the kinase reaction suitable to identify both inhibitors and activators of PKAJ.
The PKADJ holoenzyme was treated with the test compounds in the reaction step where the holoenzyme was dissociated to release the activated catalytic unit (PKADJc).

wide-type PKA (wt-PKA) = wide-type PKA (wt-PKA) (Homo sapiens, UniProt P17612); experiment: modified sandwich ELISA, wild-type PKA; format: biochemical; details: read-out: IC50 against wt-PKA
[1] = target: RIα2:JPKAcα2 chimeric kinase holoenzyme (Homo sapiens, UniProt P17612); experiment: JPKAcα chimeric kinase holoenzyme ELISA dose response
Method: Compounds were tested to determine an IC50 value for inhibitory activity against RIα2:JPKAcα2 chimeric kinase holoenzyme. A 3× dose-response curve was set up over a final compound concentration range of 0-10 μM containing 1 μM cAMP, 50 μM ATP, and 0.4% DMSO in 100 mM Tris-HCl pH 7.5 (all final concentrations). A no cAMP/ATP control was also included for background normalization.
The % normalized activity measures were then fit to the following equation using a nonlinear regression least-squares fit with a variable slope (GraphPad Prism Software, San Diego, CA) an IC50 value was calculated using the following formula.

PKG1α = PKG1α (Homo sapiens, UniProt Q13976); experiment: HOTSPOT radiometric kinase assay; format: biochemical; details: 50 nM, 10 μM ATP
PKG1β = target: T2, PKG1β (Homo sapiens, UniProt Q13976); experiment: HOTSPOT radiometric kinase assay; format: biochemical; details: 50 nM, 10 μM ATP
T2 construct: purchased Reaction Biology Corp
T2 sequence (Q13976 1-686 isoform Q13976-2): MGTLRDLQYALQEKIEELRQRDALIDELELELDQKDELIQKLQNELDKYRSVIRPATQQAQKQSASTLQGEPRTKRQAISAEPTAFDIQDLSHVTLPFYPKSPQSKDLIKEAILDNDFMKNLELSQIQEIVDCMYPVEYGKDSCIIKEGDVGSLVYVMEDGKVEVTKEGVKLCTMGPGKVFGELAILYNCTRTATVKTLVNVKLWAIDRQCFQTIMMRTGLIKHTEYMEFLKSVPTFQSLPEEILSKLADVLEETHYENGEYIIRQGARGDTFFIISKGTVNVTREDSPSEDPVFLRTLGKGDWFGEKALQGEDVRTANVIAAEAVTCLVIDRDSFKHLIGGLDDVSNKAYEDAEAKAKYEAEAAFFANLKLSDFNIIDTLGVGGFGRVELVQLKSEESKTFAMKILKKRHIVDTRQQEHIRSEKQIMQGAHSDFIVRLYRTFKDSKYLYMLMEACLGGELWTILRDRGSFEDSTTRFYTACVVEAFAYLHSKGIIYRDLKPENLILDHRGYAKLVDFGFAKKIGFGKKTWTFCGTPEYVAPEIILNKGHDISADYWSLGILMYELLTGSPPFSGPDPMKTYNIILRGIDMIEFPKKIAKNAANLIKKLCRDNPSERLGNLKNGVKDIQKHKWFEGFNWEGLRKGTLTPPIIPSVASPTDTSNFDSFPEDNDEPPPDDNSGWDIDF

PKCθ = target: T3, PKCθ (Homo sapiens, UniProt Q04759); experiment: HOTSPOT radiometric kinase assay; format: biochemical; details: 50 nM, 10 μM ATP
T3 construct: purchased Reaction Biology Corp

CLK1 = target: T4, CLK1 (Homo sapiens, UniProt P49759); experiment: HOTSPOT radiometric kinase assay; format: biochemical; details: 50 nM, 10 μM ATP
T4 construct: purchased Reaction Biology Corp
T4 sequence (P49759 whole entry): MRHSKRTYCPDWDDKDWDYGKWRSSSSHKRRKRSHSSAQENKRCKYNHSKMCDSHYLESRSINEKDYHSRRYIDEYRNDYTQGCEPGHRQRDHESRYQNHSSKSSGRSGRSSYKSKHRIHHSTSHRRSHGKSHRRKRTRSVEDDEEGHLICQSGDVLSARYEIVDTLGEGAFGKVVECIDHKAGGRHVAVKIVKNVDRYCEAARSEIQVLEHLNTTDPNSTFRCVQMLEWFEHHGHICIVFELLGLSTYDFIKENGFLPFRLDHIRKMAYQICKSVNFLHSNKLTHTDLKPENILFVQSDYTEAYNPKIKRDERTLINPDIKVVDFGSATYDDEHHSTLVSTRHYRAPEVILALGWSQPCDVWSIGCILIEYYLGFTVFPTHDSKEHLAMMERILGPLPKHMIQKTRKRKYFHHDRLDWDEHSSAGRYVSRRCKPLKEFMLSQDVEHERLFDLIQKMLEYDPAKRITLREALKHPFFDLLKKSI

STK39/STLK3 = target: T5, STK39/STLK3 (Homo sapiens, UniProt Q9UEW8); experiment: HOTSPOT radiometric kinase assay; format: biochemical; details: 50 nM, 10 μM ATP
T5 construct: purchased Reaction Biology Corp

LATS1 = target: T6, LATS1 (Homo sapiens, UniProt O95835); experiment: HOTSPOT radiometric kinase assay; format: biochemical; details: 50 nM, 10 μM ATP
T6 construct: purchased Reaction Biology Corp
T6 sequence (O95835 1-1130): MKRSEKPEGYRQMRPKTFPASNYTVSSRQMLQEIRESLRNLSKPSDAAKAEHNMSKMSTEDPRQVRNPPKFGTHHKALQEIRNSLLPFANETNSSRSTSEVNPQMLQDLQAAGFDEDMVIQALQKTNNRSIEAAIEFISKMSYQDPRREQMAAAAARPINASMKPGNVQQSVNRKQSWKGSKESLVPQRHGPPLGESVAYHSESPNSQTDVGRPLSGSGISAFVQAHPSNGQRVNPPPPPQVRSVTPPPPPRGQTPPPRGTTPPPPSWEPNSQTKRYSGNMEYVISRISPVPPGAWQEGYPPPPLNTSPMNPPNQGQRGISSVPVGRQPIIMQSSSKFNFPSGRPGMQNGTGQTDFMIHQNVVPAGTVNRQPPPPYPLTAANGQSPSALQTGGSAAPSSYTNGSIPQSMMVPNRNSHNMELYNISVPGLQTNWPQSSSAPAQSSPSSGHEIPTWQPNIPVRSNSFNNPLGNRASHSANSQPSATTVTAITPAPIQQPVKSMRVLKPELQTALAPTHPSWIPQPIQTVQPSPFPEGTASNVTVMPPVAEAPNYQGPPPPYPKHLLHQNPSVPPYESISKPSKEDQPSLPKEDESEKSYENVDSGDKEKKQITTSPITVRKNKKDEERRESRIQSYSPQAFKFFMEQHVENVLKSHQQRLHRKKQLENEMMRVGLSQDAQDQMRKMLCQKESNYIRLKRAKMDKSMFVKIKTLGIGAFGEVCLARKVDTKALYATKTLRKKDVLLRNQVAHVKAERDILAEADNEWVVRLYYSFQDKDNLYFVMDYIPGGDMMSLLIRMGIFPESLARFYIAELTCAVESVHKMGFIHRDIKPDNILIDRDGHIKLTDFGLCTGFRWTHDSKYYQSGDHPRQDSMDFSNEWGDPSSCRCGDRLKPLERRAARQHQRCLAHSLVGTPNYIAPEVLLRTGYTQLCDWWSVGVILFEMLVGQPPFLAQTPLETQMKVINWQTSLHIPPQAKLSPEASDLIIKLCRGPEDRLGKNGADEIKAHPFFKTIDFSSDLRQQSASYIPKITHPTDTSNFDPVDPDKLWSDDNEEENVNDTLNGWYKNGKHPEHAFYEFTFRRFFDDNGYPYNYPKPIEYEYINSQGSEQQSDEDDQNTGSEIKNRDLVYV

DYRK1A = target: T7, DYRK1A (Homo sapiens, UniProt Q13627); experiment: HOTSPOT radiometric kinase assay; format: biochemical; details: 50 nM, 10 μM ATP
T7 construct: purchased Reaction Biology Corp

DYRK2 = target: T8, DYRK2 (Homo sapiens, UniProt Q92630); experiment: HOTSPOT radiometric kinase assay; format: biochemical; details: 50 nM, 10 μM ATP
T8 construct: purchased Reaction Biology Corp
T8 sequence (Q92630 1-601): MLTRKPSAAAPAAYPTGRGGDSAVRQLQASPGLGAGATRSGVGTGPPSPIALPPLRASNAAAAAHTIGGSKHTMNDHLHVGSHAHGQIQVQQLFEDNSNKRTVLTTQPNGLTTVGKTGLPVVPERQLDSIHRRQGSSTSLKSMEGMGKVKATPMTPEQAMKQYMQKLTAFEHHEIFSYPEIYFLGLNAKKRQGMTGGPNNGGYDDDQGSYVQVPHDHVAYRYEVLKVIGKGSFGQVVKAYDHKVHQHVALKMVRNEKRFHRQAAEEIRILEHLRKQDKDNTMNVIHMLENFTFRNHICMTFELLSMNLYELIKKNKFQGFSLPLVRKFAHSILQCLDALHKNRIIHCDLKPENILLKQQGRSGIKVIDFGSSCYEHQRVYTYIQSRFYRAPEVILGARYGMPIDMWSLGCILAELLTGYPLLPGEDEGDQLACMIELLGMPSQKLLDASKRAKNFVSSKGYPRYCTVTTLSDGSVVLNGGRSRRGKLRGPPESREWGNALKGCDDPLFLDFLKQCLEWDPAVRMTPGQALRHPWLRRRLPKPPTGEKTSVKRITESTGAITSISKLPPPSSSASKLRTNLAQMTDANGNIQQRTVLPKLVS

PKAα = PKAα (Homo sapiens, UniProt P17612); experiment: HOTSPOT radiometric kinase assay
Method: The differential was calculated as follows: IC50 (kinase)/IC50 (PKG1a).

AKT1 = AKT1 (Homo sapiens, UniProt P31749); experiment: HOTSPOT radiometric kinase assay
AKT1, sequence (P31749 whole entry): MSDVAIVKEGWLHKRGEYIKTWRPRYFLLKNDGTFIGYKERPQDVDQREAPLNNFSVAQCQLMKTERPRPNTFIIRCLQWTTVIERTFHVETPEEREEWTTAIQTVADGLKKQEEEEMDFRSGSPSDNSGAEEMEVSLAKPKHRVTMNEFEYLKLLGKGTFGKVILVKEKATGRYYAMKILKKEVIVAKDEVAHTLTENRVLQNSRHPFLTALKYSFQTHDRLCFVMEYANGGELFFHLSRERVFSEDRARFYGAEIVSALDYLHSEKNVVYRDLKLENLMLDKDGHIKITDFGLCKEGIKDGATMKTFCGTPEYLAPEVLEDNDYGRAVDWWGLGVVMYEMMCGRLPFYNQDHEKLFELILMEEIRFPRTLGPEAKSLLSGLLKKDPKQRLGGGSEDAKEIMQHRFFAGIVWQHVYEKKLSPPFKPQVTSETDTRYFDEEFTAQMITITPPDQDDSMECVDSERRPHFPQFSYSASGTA

MAP2K1 (MEK1) = MAP2K1 (MEK1) (Homo sapiens, UniProt Q02750); experiment: HOTSPOT radiometric kinase assay
CAMK1δ = CAMK1δ (Homo sapiens, UniProt Q8IU85); experiment: HOTSPOT radiometric kinase assay
CAMK1δ, sequence (Q8IU85 whole entry): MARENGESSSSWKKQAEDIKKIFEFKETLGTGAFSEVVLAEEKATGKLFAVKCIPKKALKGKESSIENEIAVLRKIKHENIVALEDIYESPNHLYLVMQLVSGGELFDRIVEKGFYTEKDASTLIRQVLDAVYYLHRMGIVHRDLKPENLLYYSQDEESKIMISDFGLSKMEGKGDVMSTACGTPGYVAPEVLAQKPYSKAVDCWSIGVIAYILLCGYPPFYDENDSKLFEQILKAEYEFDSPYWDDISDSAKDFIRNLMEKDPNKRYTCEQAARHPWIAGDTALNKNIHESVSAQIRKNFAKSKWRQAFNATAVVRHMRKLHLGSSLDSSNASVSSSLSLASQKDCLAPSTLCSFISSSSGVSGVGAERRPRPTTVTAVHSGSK

CK1α1 = CK1α1 (Homo sapiens, UniProt P48729); experiment: HOTSPOT radiometric kinase assay
CK1α1, sequence (P48729 whole entry): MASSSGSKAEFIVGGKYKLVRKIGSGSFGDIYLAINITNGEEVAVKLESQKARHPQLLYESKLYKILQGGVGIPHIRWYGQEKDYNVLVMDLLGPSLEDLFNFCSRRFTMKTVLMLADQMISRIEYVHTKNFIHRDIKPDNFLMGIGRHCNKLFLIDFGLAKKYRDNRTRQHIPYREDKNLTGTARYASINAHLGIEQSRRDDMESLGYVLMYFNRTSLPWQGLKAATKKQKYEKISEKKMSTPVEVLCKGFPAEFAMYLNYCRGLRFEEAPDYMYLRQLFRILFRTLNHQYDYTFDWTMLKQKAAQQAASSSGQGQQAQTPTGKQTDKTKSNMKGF

ERBB2/HER2 = ERBB2/HER2 (Homo sapiens, UniProt P04626); experiment: HOTSPOT radiometric kinase assay
ERK1 = ERK1 (Homo sapiens, UniProt P27361); experiment: HOTSPOT radiometric kinase assay
ERK1, sequence (P27361 whole entry): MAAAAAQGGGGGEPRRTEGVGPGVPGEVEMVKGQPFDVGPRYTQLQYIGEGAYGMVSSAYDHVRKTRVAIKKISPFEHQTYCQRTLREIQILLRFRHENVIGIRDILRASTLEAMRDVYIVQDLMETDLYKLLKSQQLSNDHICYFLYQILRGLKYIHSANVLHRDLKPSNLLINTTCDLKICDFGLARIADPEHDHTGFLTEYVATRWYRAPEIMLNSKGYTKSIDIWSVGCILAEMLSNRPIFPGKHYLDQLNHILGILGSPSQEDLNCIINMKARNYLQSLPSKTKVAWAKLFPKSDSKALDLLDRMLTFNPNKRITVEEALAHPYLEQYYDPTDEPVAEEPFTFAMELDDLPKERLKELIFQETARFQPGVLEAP

FLT1/VEGFR1 = FLT1/VEGFR1 (Homo sapiens, UniProt P17948); experiment: HOTSPOT radiometric kinase assay
FLT1/VEGFR1, sequence (P17948 27-1338): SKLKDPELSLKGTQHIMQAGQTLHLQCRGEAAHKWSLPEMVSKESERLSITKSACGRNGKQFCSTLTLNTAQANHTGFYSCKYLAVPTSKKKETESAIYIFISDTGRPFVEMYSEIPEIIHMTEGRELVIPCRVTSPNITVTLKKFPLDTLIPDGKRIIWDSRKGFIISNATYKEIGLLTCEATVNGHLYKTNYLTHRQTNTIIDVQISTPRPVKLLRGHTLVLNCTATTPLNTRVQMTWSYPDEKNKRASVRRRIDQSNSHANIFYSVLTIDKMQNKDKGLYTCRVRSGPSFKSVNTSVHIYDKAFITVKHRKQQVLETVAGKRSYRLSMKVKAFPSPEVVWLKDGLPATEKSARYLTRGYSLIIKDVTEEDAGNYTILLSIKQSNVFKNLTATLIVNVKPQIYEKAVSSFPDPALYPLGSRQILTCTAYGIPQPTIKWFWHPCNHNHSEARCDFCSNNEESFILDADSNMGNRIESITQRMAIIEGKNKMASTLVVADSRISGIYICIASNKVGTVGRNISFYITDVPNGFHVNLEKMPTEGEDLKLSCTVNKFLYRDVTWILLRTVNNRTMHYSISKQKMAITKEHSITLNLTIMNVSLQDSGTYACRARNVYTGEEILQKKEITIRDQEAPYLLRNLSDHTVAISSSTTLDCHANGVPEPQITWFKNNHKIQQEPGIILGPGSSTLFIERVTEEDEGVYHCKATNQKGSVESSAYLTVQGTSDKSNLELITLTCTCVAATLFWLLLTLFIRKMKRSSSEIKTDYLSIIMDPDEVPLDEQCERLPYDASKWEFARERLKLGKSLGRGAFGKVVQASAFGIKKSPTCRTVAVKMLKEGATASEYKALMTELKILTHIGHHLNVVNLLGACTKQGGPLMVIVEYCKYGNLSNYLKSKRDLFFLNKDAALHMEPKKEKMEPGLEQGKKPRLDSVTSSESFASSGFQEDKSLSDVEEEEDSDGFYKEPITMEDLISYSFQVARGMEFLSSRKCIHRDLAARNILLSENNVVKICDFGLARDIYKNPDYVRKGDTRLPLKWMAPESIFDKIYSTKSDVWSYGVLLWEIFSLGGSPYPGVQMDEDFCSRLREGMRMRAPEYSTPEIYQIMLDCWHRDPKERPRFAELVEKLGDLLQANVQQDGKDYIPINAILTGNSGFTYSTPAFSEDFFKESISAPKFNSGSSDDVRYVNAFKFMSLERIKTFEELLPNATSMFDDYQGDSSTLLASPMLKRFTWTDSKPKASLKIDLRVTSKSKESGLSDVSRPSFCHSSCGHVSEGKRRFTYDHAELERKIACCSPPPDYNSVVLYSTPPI

GSK3β = GSK3β (Homo sapiens, UniProt P49841); experiment: HOTSPOT radiometric kinase assay
PKCα = PKCα (Homo sapiens, UniProt P17252); experiment: HOTSPOT radiometric kinase assay
[2] = system: panel of 370 human protein kinases; experiment: pan human kinome profiling (370 kinases); details: 50 nM; panel of 370 kinases
DYRK4 = target: T9, DYRK4 (Homo sapiens, UniProt Q9NR20); experiment: HOTSPOT radiometric kinase assay; format: biochemical; details: 10 μM ATP
T9 construct: purchased Reaction Biology Corp

In the case of Cn1cncc1C1=CN(c2ncnc3[nH]c(=O)[nH]c23)CCS1 [Compound 2, Aplithianine B], the “fold less potent than 1 against PKADJ” value (PKADJ; compared with compound 1) is reported as “more than 60 fold”, the IC50 (PKADJ; modified sandwich ELISA, read-out: IC50 against PKADJ) is reported as 69 µM and the IC50 (wide-type PKA (wt-PKA)) is reported as 45 µM.

Compound NCCNC(=O)C1CN(c2ncnc3[nH]cnc23)CCS1 (stereo not drawn) [Compound 183A051C, N-(2-aminoethyl)-4-(7H-purin-6-yl)thiomorpholine-2-carboxamide] has an IC50 [1] of over 10 µM.

For CNCCNC(=O)C1=CN(c2ncnc3nc[nH]c23)CCS1 [Compound 183A050E, N-(2-(methylamino)ethyl)-4-(7H-purin-6-yl)-3,4-dihydro-2H-1,4-thiazine-6-carboxamide], the IC50 [1] was 1.01 to 10 µM.

O=C(NCCO)C1=CN(c2ncnc3[nH]cnc23)CCS1 [Compound 183A050D, N-(2-hydroxyethyl)-4-(7H-purin-6-yl)-3,4-dihydro-2H-1,4-thiazine-6-carboxamide] showed an IC50 [1] of over 10 µM.

In the case of Cn1cnc(Br)c1C1=CN(c2ncnc3nc[nH]c23)CCS1 [Compound 1a, Aplithianine A1], the IC50 (wide-type PKA (wt-PKA)) is reported as 1.22 µM, the inhibition at 0.05 µM (PKG1α) is reported as over 50% and the inhibition at 0.05 µM (PKG1β) is reported as over 50%. For the same compound, the inhibition at 0.05 µM (PKCθ) was over 50%, the inhibition at 0.05 µM (CLK1) was over 50% and the inhibition at 0.05 µM (STK39/STLK3) was over 50%. For the same compound, the inhibition at 0.05 µM (LATS1) was over 50%, the inhibition at 0.05 µM (DYRK1A) was over 50% and the inhibition at 0.05 µM (DYRK2) was over 50%. The IC50 (PKAα) was 0.043 to 0.189 µM, the PKAα % inhibition (PKAα; 50 nM, 10 μM ATP) was 78% and the IC50 (AKT1) was 0.043 to 0.189 µM. For the same compound, the IC50 (MAP2K1 (MEK1)) was 18 to 65 µM, the IC50 (CAMK1δ) was 18 to 65 µM and the IC50 (CK1α1) was 0.8 to 6.6 µM. The IC50 (ERBB2/HER2) was 18 to 65 µM, the IC50 (ERK1) was 0.8 to 6.6 µM and the IC50 (FLT1/VEGFR1) was 18 to 65 µM. For the same compound, the IC50 (GSK3β) was 0.043 to 0.189 µM, the IC50 (PKCα) was 0.8 to 6.6 µM and the “number of kinases more potent targets compared to PKA” value [2] was 29.

O=C(NCCNC(=O)c1ccccc1)C1=CN(c2ncnc3nc[nH]c23)CCS1 [Compound 183A049F, N-(2-benzamidoethyl)-4-(7H-purin-6-yl)-3,4-dihydro-2H-1,4-thiazine-6-carboxamide] was tested, and the IC50 [1] was over 10 µM.

With CC(=O)NCCNC(=O)C1=CN(c2ncnc3[nH]cnc23)CCS1 [Compound 183A050B, N-(2-acetamidoethyl)-4-(7H-purin-6-yl)-3,4-dihydro-2H-1,4-thiazine-6-carboxamide] the IC50 [1] was over 10 µM.

In the case of O=C(NCCNC(=O)c1ccccn1)C1=CN(c2ncnc3nc[nH]c23)CCS1 [Compound 183A049C, N-(2-(picolinamido)ethyl)-4-(7H-purin-6-yl)-3,4-dihydro-2H-1,4-thiazine-6-carboxamide], the IC50 [1] is reported as over 10 µM.

Work on NCCNC(=O)C1=CN(c2ncnc3[nH]cnc23)CCS1 [Compound 183A049E, N-(2-aminoethyl)-4-(7H-purin-6-yl)-3,4-dihydro-2H-1,4-thiazine-6-carboxamide] yielded an IC50 [1] of 0.1 to 1 µM.

COCCNC(=O)C1=CN(c2ncnc3[nH]cnc23)CCS1 [Compound 183A050C, N-(2-methoxyethyl)-4-(7H-purin-6-yl)-3,4-dihydro-2H-1,4-thiazine-6-carboxamide] gave an IC50 [1] of over 10 µM.

In the case of O=C1Nc2ccc(I)cc2/C1=C/c1cc(Br)c(O)c(Br)c1 [GW5074, reference compound], the IC50 (DYRK4) is reported as 3.66 µM.
